Assay results: US6077872A (priority 1998, dated 2000)
Like-named read-outs stand apart in the source and are kept apart here. Values belong to the molecule of their own block, whether it stands above or below them.

Key:
in vivo = settings: rat; for AUC / Cmax / Tmax / half-life: in vivo, po, 200 mg/kg; for enhancement of serum Ca level: 200 mg calcium/kg oral
Source text: (2) apparatus: Model WFX-1B Spectrophotometer of Atomic Absorption was produced by The Second Optical Apparatus Factory of Beijing, 83114; P-E 3030 Spectrophotometer of Atomic Absorption was produced by Perkin-Elmer Corp.,USA;DT-100 Single-Pan Balance (1/10^4) was produced by Beijing Optical Apparatus Factory; TJ-6 Centrifuge was produced by Beckman, USA; Model MVS-1 Vortex Mixer was produced by Beijing Beide Scientific Apparatus and Materials Co. Ltd.
Twelve hours after the animals had been fasted, 0.5 mL plasma was sampled by excising eyeballs. The plasma was established as the blank group. Then rats were administered agents once in an amount of 20 mL/kg body weight by pouring into the stomach. 0.5 mL plasma was sampled by taking from eyeballs 0.25,0.5,1,1.5,2,3,4,6,8,12 and 16 hours later after the administration. […] The concentration of calcium was measured by a Model WFX-1B Spectrophotometer of Atomic Absorption.

preschool children = settings: for bone mineral density: before test 0.379 (threonate), 0.369 (carbonate)
Protocol: Seventy 3-6 years old healthy children whose bone mineral density were medium-lower at a central kindergarten in the suburban county of Beijing were selected as subjects, wherein there are 13 boys and 57 girls. All were healthy children who didn't have any metabolic diseases, liver or kidney diseases, bone wounds and abnormal diseases.
Double blind method was employed during the observation. Every person was administered calcium preparation or placebo twice a day in a dosage of 1 bag each time. […] Group IV, established as blank-control group, was administered placebo which didn't contain calcium. All the above oral preparations were provided by Beijing Juneng Asian-Pacific Life Science Research Center.
(1) Bone mineral density was measured before the test and 1.5 months and 3 months later after the administration of Ca supplements.
The bone mineral density of radius in non-preferred hand was measured at the 1/3 point near the farther-end by a Model BMD400 Single-Photon absorptiometry produced conjointly by Institute of Atomic Energy, Ministry of Nuclear Industry, China and Institute of Broadcasting, Beijing, to obtain mean mineral bone density (BMD, g/cm^2). Each point was scanned twice with a scanning speed of 0.5 mm/sec.
All data was analyzed with a SAS statistical software package.

rickets-babies [1] = settings: for craniomalacia, babies with symptom after the beginning of test: before test 3 (threonate), 4 (carbonate); for pillow-bald, babies with symptom after the beginning of test: before test 9 (threonate), 9 (carbonate); for night-sweat, babies with symptom after the beginning of test: before test 12 (threonate), 13 (carbonate)
Protocol: Fourty rickets-babies at the age of 3-10 months were randomly divided into 2 groups of 20 babies each. […] Test group II, namely the calcium carbonate group, were administered orally calcium carbonate twice a day in a dosage of one bag each time. Each bag of the two kind of calcium preparations contained the same amount of element calcium, namely 150 mg element calcium.
(1) Clinic symptoms mainly included the normal symptoms of rickets-babies such as night-sweat, pillow-bald, craniomalacia, etc.

rickets-babies [2] = test system: rickets-babies
Protocol: Fourty rickets-babies at the age of 3-10 months were randomly divided into 2 groups of 20 babies each. […] Test group II, namely the calcium carbonate group, were administered orally calcium carbonate twice a day in a dosage of one bag each time.
(2) Biochemical examinations of blood. Venous blood of rickets-baby was sampled before and after the beginning of test and serum Ca, P and AKP level were measured and the product of [Ca]×[P] was calculated.
(3) Data processing: All data was statistically analyzed using the method of direct calculation of probability, grouping t-test and pairing t-test.
Considering the difficulty in sampling blood from rickets-babies during the test operation, blood sampling was not performed at the second week after the beginning of the test. Blood sampling was only performed before the test and at the fourth week after the beginning of the test.

osteoporosis = settings: oral administration; Recker et al 1977; cited from earlier work
rickets-mice [3] = test: Preventing rickets in younger mice: serum Ca, AKP, P; type: in vivo, mice of Kunming species; settings: 300 mg calcium element, 60 days
Protocol: (§1) The mice were bred for 60 days under conditions of avoiding light around-the-clock, at a temperature of 20-25° C. and a relative humility of 40-60% while the normal-control group mice were fed ordinary diet and water and were placed in non-dark room.
(§2) The low-calcium diet used in this test was the same as that in Test II but VD in the vitamin mixture was replaced by glucose.
(§3) Some weanling mice were placed in dark room and fed VD -deficient low-calcium diet and drunk de-ionized water for 60 days, thus a ricket model of baby mice was prepared. While other weanling mice were placed in non-dark room and fed ordinary diet and drunk tap water for 60 days, these mice were established as normal-control group.

rickets-mice [4] = test: Preventing rickets in younger mice: body weight, dry weight, ash weight and total calcium content of femur; type: in vivo, mice of Kunming species; settings: 300 mg calcium element
Protocol: as §1, §2, §3

rickets-mice [5] = test: Preventing rickets in younger mice: tibia strength (three-point bending); type: in vivo, mice of Kunming species
Protocol: as §1, §2, §3

[6] = 2 bags/day of 150 mg element calcium, 1.5 months
[7] = after four weeks of Ca-supplementing

AUC (in vivo): 28200 ng·h/mL
Cmax (in vivo): 24900 ng/mL
Tmax (in vivo): 36.6 min
SMILES: CC(=O)O [calcium acetate]

SMILES: O=C(O)O [calcium carbonate]
enhancement of serum Ca level (in vivo; 0.25 hrs): 11.1 µg/mL
enhancement of serum Ca level (in vivo; 0.5 hrs): 24.7 µg/mL
enhancement of serum Ca level (in vivo; 1 hrs): 21.4 µg/mL
enhancement of serum Ca level (in vivo; 1.5 hrs): 17.1 µg/mL
enhancement of serum Ca level (in vivo; 2 hrs): 13.2 µg/mL
enhancement of serum Ca level (in vivo; 3 hrs): 10.9 µg/mL
enhancement of serum Ca level (in vivo; 4 hrs): 5.7 µg/mL
enhancement of serum Ca level (in vivo; 6 hrs): 0.2 µg/mL
enhancement of serum Ca level (in vivo; 8 hrs): -1.4 µg/mL
AUC (in vivo): 40400 ng·h/mL
Cmax (in vivo): 31100 ng/mL
Tmax (in vivo): 39.6 min
half-life (in vivo): 20.4 min
bone mineral density (preschool children; 2 bags/day of 150 mg element calcium, 1.5 month): 0.385 ± 0.028 g/cm^2
extent of BMDs' increase (preschool children; [6]): 4.37%
percentage of children whose BMDs reached the normal range (preschool children; [6]): 0%
bone mineral density (preschool children; 2 bags/day of 150 mg element calcium, 3 month): 0.412 ± 0.020 g/cm^2
extent of BMDs' increase (preschool children; 2 bags/day of 150 mg element calcium, 3 months): 11.65%
BMD comparison between groups (in words) (preschool children; in vivo): markedly higher than those of the blank-control group only in 3 months
total symptom improvement (rickets-babies [1]; four weeks): 57.6%
craniomalacia, babies with symptom after the beginning of test (rickets-babies [1]; four weeks): 3
pillow-bald, babies with symptom after the beginning of test (rickets-babies [1]; four weeks): 5
night-sweat, babies with symptom after the beginning of test (rickets-babies [1]; four weeks): 3
total symptom improvement (rickets-babies [1]; two weeks): 11.5%
rickets-babies free of symptoms (rickets-babies [1]; two weeks of administration (concluding text)): 50%
craniomalacia, babies with symptom after the beginning of test (rickets-babies [1]; two weeks): 4
pillow-bald, babies with symptom after the beginning of test (rickets-babies [1]; two weeks): 9
night-sweat, babies with symptom after the beginning of test (rickets-babies [1]; two weeks): 10
percentage of babies whose AKP reached the normal range (rickets-babies [2]; [7]): 30%
percentage of babies whose [Ca] × [P] reached the normal range (rickets-babies [2]; [7]): 70%
percentage of babies whose serum P reached the normal range (rickets-babies [2]; [7]): 60%
serum Ca change (in words) (rickets-babies [2]; before and after the test, P>0.05): no significant variation
serum P (rickets-babies [2]; four weeks after, before 3.19 ± 0.25 (threonate), 3.12 ± 0.20 (carbonate)): 3.90 ± 0.52
serum Ca (rickets-babies [2]; four weeks after, before 10.49 ± 0.39 (threonate), 10.51 ± 0.47 (carbonate)): 10.55 ± 0.42
[Ca] × [P] (rickets-babies [2]; four weeks after, before 33.4 ± 2.47 (threonate), 33.83 ± 2.17 (carbonate)): 43.19 ± 5.22
AKP (rickets-babies [2]; four weeks after, before 235.95 ± 7.89 (threonate), 235.25 ± 7.37 (carbonate)): 225.25 ± 22.93
effectiveness for preventing osteoporosis (osteoporosis): not effective for preventing osteoporosis

AUC (in vivo): 138000 ng·h/mL
Cmax (in vivo): 32100 ng/mL
Tmax (in vivo): 26.4 min
half-life (in vivo): 160 min
SMILES: O=C(O)[C@H](O)[C@@H](O)[C@H](O)[C@H](O)CO [calcium gluconate, reference compound]
serum Ca (rickets-mice [3]; model 1.55 ± 0.42): 2.37 ± 0.97 mmol/L
serum P (rickets-mice [3]; model 2.23 ± 0.52): 1.71 ± 0.45 mmol/L
serum AKP (in Bessey-Loury unit) (rickets-mice [3]; model 101 ± 34): 46.6 ± 13 U/L
dry weight of femur (rickets-mice [4]; model 0.099 ± 0.014): 0.122 ± 0.019 g
total calcium content (rickets-mice [4]; model 24.81 ± 4.36): 30.23 ± 5.23 mg
ash weight (rickets-mice [4]; model 46.62 ± 9.38): 70.76 ± 10.18 mg
breaking force (tibia) (rickets-mice [5]; 300 mg calcium element, model 1.12 ± 0.37): 1.54 ± 0.35 kg
breaking force of tibia (in words) (rickets-mice [5]; mouse, in vivo): significantly higher than those for the model group and were comparable with those for the normal-control group
